Structures can show the parent of a compound that is named as a salt.
Key:
[1] = test system: Candida albicans 5314; test: MIC, micro-bouillon-dilution method; format: cell-based; conditions: Candida albicans 5314, 18 hours at 37° C.
Source text: (§1) Examination of the Inhibitory Effect Through Determining of the Minimal Inhibitory Concentration (MIC) in the Micro-Bouillon-Dilution Methods
(§2) In this method, a series of dilutions with decreasing concentrations of drug is produced in 96-well-microtiter plates from a stock solution of the compound. The drug-containing microtiter plate-wells are inoculated with a defined amount of the pathogen to be tested, and cultivated. The concentration of the compound in the well, where no more turbidity of the medium due to a growth of the pathogens could be optically detected is given as the MIC.
(§3) The test strains were inoculated in Luria-Bertani-medium, and grown over night in a shaking incubator at 37° C. until stationary growth phase. On the following day, the culture was diluted 1:100 with fresh Müller-Hinton-bouillon (MH-Medium) containing 5% NaCl (w/v), and until logarithmic growth phase incubated again at 37° C. inkubiert. The optical density of the bacterial suspension was photometrically measured at 550 nm, and the suspension adjusted at 2×10^5 colony forming units/ml (CFU/ml). In the meantime, a geometric series of dilutions of the test compounds was produced in MH-medium. 100 μl of each dilution were pipetted into the corresponding wells of a 96-well-polystyrene-flat bottom-microtiter plate. The plates were inoculated with 100 μl of the pre-prepared inoculum, and cultured in the incubator for 18 hours at 37° C. On the following day, the optical density of the bacterial cultures in the wells was determined with an ELISA-reader at a wavelength of 550 nm, compared to the blank value (=non-inoculated MH-medium). The concentrations of the compound in the last wells, wherein no more growth of the pathogens could be detected, is given as the MIC. A low MIC indicates a high inhibitory activity of a compound, whereas a high concentration indicates a low activity.
(§4) The MIC of, for example, A was tested for the following germs and strains: • Staphylococcus aureus 325: Biofilm-positive clinical isolate from blood culture, wild type • Staphylococcus aureus NCTC 8325: Biofilm-negative reference strain, genome published • Staphylococcus epidermidis RP62A: Biofilm-positive, multi resistant reference strain • Escherichia coli 536: urinary tract isolate, reference strain • Pseudomonas aeruginosa: environmental isolate • Candida albicans 5314: clinical isolate

[2] = test system: Staphylococcus epidermidis RP62A; test: MIC, micro-bouillon-dilution method; format: cell-based; conditions: 18 hours at 37° C.
Source text: as §1, §2, §3, §4

[3] = test system: Staphylococcus aureus 325; test: MIC, micro-bouillon-dilution method; format: cell-based; conditions: Staphylococcus aureus 325, 18 hours at 37° C.
Source text: as §1, §2, §3, §4

[4] = test system: Escherichia coli 536; test: MIC, micro-bouillon-dilution method; format: cell-based; conditions: Escherichia coli 536, 18 hours at 37° C.
Source text: as §1, §2, §3, §4

[5] = test system: Pseudomonas aeruginosa; test: MIC, micro-bouillon-dilution method; format: cell-based
Source text: as §1, §2, §3, §4

[6] = test system: Staphylococcus aureus NCTC 8325; test: MIC, micro-bouillon-dilution method; format: cell-based; conditions: Staphylococcus aureus NCTC 8325, 18 hours at 37° C.
Source text: as §1, §2, §3, §4

[7] = test system: S. epidermidis RP62A; test: Biofilm test on polystyrene surfaces (crystal violet); format: cell-based, Staphylococcus epidermidis; conditions: drug concentration of 0.63 μM
Experimental: Determination of the Formation of Biofilms of Staphylococci on Polystyrene-Surfaces (Biofilm Test)
For determining the effect of a test compound on the formation of biofilms of staphylococci, the biofilm-reference strain S. epidermidis RP62A is inoculated in trypticase-soy-broth (TSB) with a common 0.25% (w/v) glucose concentration (standard-TSB), and grown over night at 37° C. in a shaking incubator until the stationary growth phase. On the next day, the cultures are diluted 1:100 with fresh TSB, and 100 μl of this germ suspension are pipetted into the wells of a 96-well-polystyrol-tissue culture plate with flat bottom (Greiner, Nürtingen, Germany). In the meantime, also a geometric series of dilutions of the test substance is produced in TSB, and also 100 μl of each of these dilutions are added to the den germ suspensions. The plates were incubated at 37° C. in an incubator for 18 hours at 37° C. On the next day, first the growth of the cultures is checked through determining of the optical density at 550 nm by means of an ELISA-reader (see also at MIC-determination), and documented. Then, the cultures are carefully poured out of the wells, and the plates were washed three times with phosphate-buffered saline solution (PBS), in order to remove non-adherent bacteria. […] After drying, the density of the adherent biofilm is determined with an ELISA-reader at a wavelength of 490 nm.

[8] = test system: 293 kidney epithelial cells; test: Cytotoxicity by the Alamar-Blue assay; format: cell-based
Experimental: Determination of the Cytotoxicity by the Alamar-Blue®-Assay with the Example of Substance A
The cytotoxicity of A was determined by means of an Alamar-Blue®-assay. First, a geometric series of dilutions of A in cellular medium (293 kidney epithelial cells; without phenol red) with 1% DMSO was produced, and in a 96-well-polystyrol-flat bottom-microtiter plate vorgelegt. The cells were trypsinized, and washed once. For the test, a cellular suspension of 10^5 cells/ml was prepared, and 20 μl thereof were pipetted into the wells. The final volume was 200 μl. After 24 h incubation at 37° C. and 5% CO2, 20 μl Alamar Blue (Trinova Biochem, Gieβen, Germany) was added into each well, and the microtiter plate was incubated further. The wells that contained the medium and substance, as well as those that only contained cellular suspension (without substance), served as negative or positive control, respectively. The optical density was measured after 24 h and 48 h with an ELISA-reader at the wavelengths 550 nm and 630 nm. The IC50 value for A was calculated following linear interpolation (W. Huber, J. C. Koella Acta Tropica 1993, 55, 257-261).

COc1cc(OC)c2c(C)[n+](-c3ccc(-c4ccc(-[n+]5c(C)cc6cc(OC)cc(OC)c6c5C)cc4)cc3)c(C)cc2c1 [A, N,N′-(1,1′-benzidine)-di-(6,8-dimethoxy-1,3-dimethylisoquinolinium)-salt]
Minimal inhibitory concentrations [1]: 1.25 µM
Minimal inhibitory concentrations [2]: 0.63 µM
Minimal inhibitory concentrations [3]: 0.63 µM
Minimal inhibitory concentrations [4]: 20.00 µM
Minimal inhibitory concentrations ([5]; Pseudomonas aeruginosa, 18 hours at 37° C.): >160 µM
growth-inhibiting effect ([5]; pseudomonades, result in words): fully ineffective
Minimal inhibitory concentrations [6]: 5.00 µM
reduction of the formation of biofilms compared to a control without the substance [7]: about 90%
IC50 [8]: 42.4 µM

From patent US8173673B2, “Biofilm-inhibiting effect and anti-infective activity of N,C-linked aryl isoquinolines and the use thereof” (Julius-Maximilians-Universitaet Wuerzburg, priority 2006, dated 2012)
